Results: PubChem BioAssay (NCI)
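Tested at 5 concentrations; 48 h exposure; 96-well plates; endpoints linearly interpolated, else capped at highest concentration. GI50 is the concentration that inhibits growth by half. TGI: total growth inhibition.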

How the values were obtained:
Assay in all cases: NCI tumour cell line growth inhibition, 48 h
[1] = system: 786-0 renal
[2] = system: COLO 205 colon
[3] = system: DU-145 prostate
[4] = system: HCT-116 colon
[5] = system: MDA-MB-231 breast
[6] = system: NCI/ADR-RES ovarian
[7] = system: SF-268 CNS
[8] = system: SF-295 CNS
[9] = system: SK-OV-3 ovarian
[10] = system: EKVX NSCLC

SMILES	GI50 [1]	TGI [1]	GI50 [2]	TGI [2]	GI50 [3]	TGI [3]	GI50 [4]	TGI [4]	GI50 [5]	TGI [5]	GI50 [6]	TGI [6]	GI50 [7]	TGI [7]	GI50 [8]	TGI [8]	GI50 [9]	TGI [9]	TGI [10]	GI50 [10]
O=C1Nc2ccccc2/C1=C/C(=O)c1coc2c1C(=O)c1ccccc1C2=O	> 100 µM	> 100 µM	> 100 µM	> 100 µM	> 100 µM	> 100 µM	> 100 µM	> 100 µM	> 100 µM	> 100 µM	> 100 µM	> 100 µM	> 100 µM	> 100 µM	> 100 µM	> 100 µM	> 100 µM	> 100 µM		
Oc1c(C(Nc2cccc3cccnc23)c2ccccc2)ccc2cccnc12 (stereo not drawn)		> 100 µM		> 100 µM				> 100 µM						> 100 µM		> 100 µM			> 100 µM	
COc1ccc(C(=O)c2cc(OC)c(OC)c(OC)c2)cc1OC(=O)CCl	0.554 µM	> 100 µM	1.21 µM	15.6 µM	0.0322 µM		0.0205 µM	> 100 µM	0.0362 µM		< 0.0167 µM	> 100 µM	0.106 µM	> 100 µM	0.0456 µM	> 100 µM	0.163 µM	> 100 µM	> 100 µM	0.832 µM
Nc1c(C(=O)c2cccc(-c3ccncc3)c2)cnn1-c1ccc(F)cc1F	> 25 µM	> 25 µM	2.09 µM	> 21.4 µM	> 22.1 µM	> 25 µM	6.25 µM	> 25 µM	15.2 µM	> 25 µM	3.83 µM	> 25 µM	> 19.7 µM	> 25 µM	8.36 µM	> 25 µM	19.8 µM	> 25 µM		
COc1cc(OC(=O)c2ccccc2)cc2c1C(=O)C=CC2=O		18.9 µM		33.7 µM		34.4 µM		13.5 µM		5.48 µM		> 88.6 µM		36.3 µM		32.1 µM		37 µM	30.2 µM	
COC(=O)c1nc(-c2ccccc2)oc1S(=O)(=O)Cc1ccccc1	3.25 µM	11 µM	1.84 µM	3.66 µM	3.46 µM	10.9 µM	2.58 µM	6.23 µM	2.18 µM	5.24 µM	16.9 µM	36.3 µM	16.1 µM	32.8 µM	16.5 µM	36.3 µM	70.2 µM	> 100 µM	30.1 µM	14.4 µM
O=[N+]([O-])c1cc(C(F)(F)F)cc([N+](=O)[O-])c1CCl		8.21 µM		4.14 µM				2.46 µM						27.2 µM		10.8 µM		14.6 µM	13.4 µM	
COc1cnc2c(c1)C(=O)c1c-2n(CCCn2ccnc2)c(=O)c2cc(F)ccc12	0.0131 µM	0.0563 µM	0.0228 µM	0.297 µM	< 0.01 µM	1.17 µM	< 0.01 µM	0.141 µM	0.35 µM	2.17 µM	0.0193 µM	> 100 µM			< 0.01 µM	0.352 µM	0.0162 µM	0.327 µM	> 100 µM	0.167 µM
CCC[CH2][Sn]1([CH2]CCC)[O]C(=O)c2cccnc2[O]1	2.62 µM	8.01 µM	1.88 µM	3.65 µM			3.61 µM	11.4 µM							3.12 µM	10.4 µM	10 µM	22.1 µM	8.04 µM	2.54 µM
COc1ccc(-c2nc(-c3nc4ccc(OC)cc4[nH]3)c3ccccn23)cc1	8.47 µM	> 100 µM	7.19 µM	39.7 µM	4.11 µM	> 100 µM	3.63 µM	13.1 µM	5.65 µM	> 100 µM	3.86 µM	57.7 µM	4.53 µM	64.3 µM			36.1 µM	> 100 µM		
Oc1ccccc1/C=C/c1csnn1		> 31.6 µM		> 100 µM				> 100 µM						> 100 µM		> 100 µM		> 100 µM	> 100 µM	
OC(c1ccccc1)(c1ccccc1)c1ccncc1		> 100 µM		> 100 µM				> 100 µM						> 100 µM		> 100 µM		> 100 µM	> 100 µM	
CCOC(=O)N1CCN(C=S)CC1		> 100 µM		> 100 µM				> 100 µM						> 100 µM				> 100 µM	> 100 µM	
CP1(=O)CCCCC1		> 100 µM		> 100 µM				> 100 µM						> 100 µM		> 100 µM		> 100 µM	> 100 µM	
CC(C)C1CC[C@@H](C)C[C@@]1(O)CC(N)=O (stereo partly drawn)		> 100 µM		> 100 µM				> 100 µM								> 100 µM		> 100 µM	> 100 µM	
CN(C)CC/C(=N\Nc1ccc([N+](=O)[O-])cc1)c1ccccc1		27.1 µM		28.5 µM				24 µM						27.4 µM		23.6 µM		29.8 µM	29.9 µM	
COc1cc2c(cc1C)NC(=O)/C2=C/c1ccccn1	2.48 µM	8.38 µM	4.23 µM	> 100 µM			2.53 µM	> 100 µM	2.02 µM	7.96 µM	2.42 µM	6.27 µM	3.28 µM	24.6 µM	3.46 µM	13.3 µM	3.41 µM	> 100 µM	6.88 µM	0.0532 µM
CCS(CC)(CC)CC1CCCC2=CCC(P(=O)(c3ccccc3)c3ccccc3)CC21 (stereo not drawn)		26.1 µM		37.4 µM				20.7 µM						26.1 µM		16.3 µM		28.7 µM	28.4 µM	
O=C(O)C(SC(=S)c1ccc(C(=S)SC(C(=O)O)c2ccccc2)cc1)c1ccccc1 (stereo not drawn)		> 100 µM						> 100 µM						> 100 µM		> 100 µM		> 100 µM		
COc1cc(CSc2nc3ccc(C)cc3c(=O)n2-c2ccccc2)cc(OC)c1OC	6.56 µM	> 100 µM	0.576 µM	3.97 µM	3.59 µM	> 100 µM	1.03 µM	> 100 µM	2.92 µM	> 100 µM	1.26 µM	> 100 µM	6.37 µM	> 100 µM	2.41 µM	48 µM	1.97 µM	> 100 µM		

SMILES	GI50 [1]	TGI [1]	GI50 [2]	TGI [2]	GI50 [3]	TGI [3]	GI50 [4]	TGI [4]	GI50 [5]	TGI [5]	GI50 [6]	TGI [6]	GI50 [7]	TGI [7]	GI50 [8]	TGI [8]	GI50 [9]	TGI [9]	TGI [10]	GI50 [10]
COC1CC(OS(=O)(=O)c2ccc([N+](=O)[O-])cc2)C(OC(=O)c2ccccc2)C(C)O1 (stereo not drawn)		> 100 µM		> 100 µM				> 100 µM						> 100 µM		> 100 µM				
Cc1ccc2nc(NC(=O)C(=O)C(C#N)c3nc4ccccc4s3)sc2c1 (stereo not drawn)		> 100 µM		38.4 µM				> 100 µM						> 100 µM		> 100 µM		> 100 µM	> 100 µM	
CCOc1ccccc1N1C(=O)C(=O)C(c2nc3ccccc3o2)C(=O)C1=O		65 µM		> 100 µM				> 100 µM						> 100 µM		> 100 µM		> 100 µM	> 100 µM	
CC(C)(C)n1cc(-c2ccnc(NCCCNS(=O)(=O)c3ccc(C(F)(F)F)cc3)c2)c(-c2cccc(O)c2)n1	1.8 µM	3.38 µM	1.95 µM	3.78 µM	1.94 µM	3.58 µM	1.55 µM	3.08 µM	2.13 µM	3.98 µM	2.07 µM	4.3 µM			1.69 µM	3.12 µM	2.69 µM	6.75 µM	3.95 µM	1.82 µM
COc1cc(/C=C2/C(=O)N(C(=O)OCC(C)C)C(Cc3cc(OC)c(OC)c(C)c3OC)C(=O)N2Cc2ccccc2)c(OC)c(C)c1OC (stereo not drawn)		> 100 µM		> 100 µM				> 100 µM						> 100 µM		> 100 µM		> 100 µM	> 100 µM	
CN1C(=Nc2ccccc2)SC1=Nc1ccccc1		> 100 µM		> 100 µM				> 100 µM						> 100 µM		> 100 µM		> 100 µM	> 100 µM	
CCc1cc(C(=O)OC)cn1C(=N)c1ccc(Cl)cc1		> 100 µM		> 100 µM				> 100 µM						> 100 µM		> 100 µM		> 100 µM	> 100 µM	
CCN(CC)c1c(C(=O)/C=C/c2ccc(OC)cc2)c(-c2ccccc2)nn(C)c1=O		41.2 µM		9.25 µM										73.1 µM		63.6 µM		> 100 µM	69.6 µM	
COc1ccc2n[se]nc2c1		> 100 µM		> 100 µM										> 100 µM		> 100 µM		> 100 µM	> 100 µM	
Cn1cc(C(=O)NCCC(=N)N)cc1NC(=O)C1=[N+](C)C=C(NC(=O)c2cccc(C(=O)NC3=CC(C(=O)Nc4cc(C(=O)NCCC(=N)N)cn4C)=[N+](C)C3)c2)C1		> 100 µM		> 100 µM										> 100 µM		> 100 µM		> 100 µM	> 100 µM	
CCC(C)(CC(C)(C)C(=O)NCC(=O)NC(Cc1ccccc1)C(=O)NC(Cc1ccccc1)C(=O)NCC(=O)NC1CC(OC2CC(O)(C(=O)CO)Cc3c(O)c4c(c(O)c32)C(=O)c2c(OC)cccc2C4=O)OC(C)C1O)C(=O)NCC(C)O (stereo not drawn)	54.3 µg/mL	> 150 µg/mL	102 µg/mL	> 150 µg/mL	121 µg/mL	> 150 µg/mL	55.3 µg/mL	> 150 µg/mL	119 µg/mL	> 150 µg/mL	> 150 µg/mL	> 150 µg/mL			75.9 µg/mL	> 150 µg/mL	> 150 µg/mL	> 150 µg/mL	> 150 µg/mL	> 150 µg/mL
Clc1ccc(C2SCc3nc4ccccc4n32)c(Cl)c1 (stereo not drawn)		31.9 µM		31.5 µM				27.6 µM						31.1 µM		21.1 µM		42.1 µM	24.9 µM	
O=C([CH-]C(=O)c1ccccc1)c1ccccc1.O=C([CH-]C(=O)c1ccccc1)c1ccccc1.[La+3].[OH-].[OH3+]	16 µM	65.1 µM	22.6 µM	61.5 µM			7.89 µM	29.6 µM					13.3 µM	59.5 µM			21.3 µM	69.8 µM	51.9 µM	14.3 µM
CN(CCCn1c2c(c3ccccc3c1=O)C(=O)c1ccccc1-2)CCCn1c2c(c3ccccc3c1=O)C(=O)c1ccccc1-2	0.0214 µM	1.39 µM	1.64 µM	> 45.7 µM			0.0133 µM	0.37 µM			1.05 µM	4.32 µM	1.64 µM	> 100 µM	0.122 µM	9.5 µM	5.45 µM	19.7 µM	> 100 µM	23.5 µM
CCOc1ccc2c(c1)[n+]([O-])c(-c1ccc(Cl)cc1)c(N)[n+]2[O-]		> 100 µM		> 100 µM				> 100 µM						> 100 µM		> 100 µM		> 100 µM	> 100 µM	
Cc1ccc(S(=O)(=O)OC2CSS(=O)CC2OS(=O)(=O)c2ccc(C)cc2)cc1 (stereo not drawn)		30.5 µM		24.1 µM				27.1 µM						30.7 µM		29.2 µM		38.5 µM	35.7 µM	
Cc1cccc(C)c1NC(=O)C(C#N)C1=C(Cl)C(=O)c2ccccc2C1=O (stereo not drawn)		45.7 µM		10.2 µM		28.1 µM		30.6 µM		49.7 µM				31.6 µM		32.5 µM		43.3 µM	38.5 µM	
Cc1cc(=O)n(-c2ccccc2C)c(C)n1		> 100 µM		> 100 µM				> 100 µM						> 100 µM		> 100 µM		> 100 µM	> 100 µM	
Cc1cc2c(cc1C)N(C(=O)CCl)CC(=O)N2	3.9 µM	15.5 µM	2.09 µM	3.68 µM	3.49 µM	10.2 µM	2.53 µM	9.77 µM	4.19 µM	15.9 µM	3.18 µM	> 100 µM	3.47 µM	11.6 µM	13.6 µM	29.6 µM	12.2 µM	24.6 µM		
